In patent publication US20250230124A1, “SMALL MOLECULE INHIBITORS OF ID PROTEINS” (MEMORIAL SLOAN-KETTERING CANCER CENTER, priority 2022, published 2025):

How the values were obtained:
[1] = tested on: CD31-positive microvessels in Matrigel plugs; assay: Anti-angiogenic activity in VEGF-165 and FGF-2 treated Matrigel plugs; assay type: in vivo, mouse; settings: for protection from new blood vessel formation: compared to vehicle control animals; for presence of endothelial cells in Matrigel plugs: mouse, in vivo
Experimental: VEGF-165 and FGF-2 treated Matrigel plugs will be implanted on Day 0 into C57BL/6 mice. Mice will be treated with either vehicle, AGX51, AGX-A, or a compound of the present technology. The AGX51, AGX-A, and compound of the present technology will be provided either in the plugs (25 μg/mg) or by daily ip treatment (30 or 100 mg/kg) for 10 days. Plugs will be harvested on Day 10, fixed and paraffin embedded. Three sections ([…] thickness) of each plug will be stained with an anti-CD31 antibody and counterstained with hematoxylin and eosin stain. CD31-positive microvessels will be counted for one entire cross-section per plug and the average micro-vessel density±SD vessels will be determined. Student's t-test will be used for statistical analysis.

LLC cancer cells = assay: Metastatic activity in LLC mouse model; assay type: in vivo; settings: daily ip
Experimental: Thirty C57BL/6 mice will be implanted with 7.5×10^5 LLC cancer cells/animal. Seven days after implantation, 5M/5F per group will be treated daily ip for 25 days with dosing vehicle (DMSO), AGX51, AGX-A, or a compound of the present technology. Fourteen days after implantation, another group of 5M/5F animals will be treated daily ip for 18 days with 50 mg/kg of AGX51, another group of 5M/5F animals will be treated daily ip for 18 days with 50 mg/kg of AGX-A, and another group of 5M/5F animals will be treated daily ip for 18 days with a compound of the present technology. Tumors will be measured three times from Day 7 to 14. On Day 14, the tumors will be excised. The animals will be necropsied for the presence of lung metastases on day 32, 18 days post excision.

DU145 cells = assay: Prostate cancer cell morphology, growth and death; assay type: cell-based; settings: for outcome of treatment of DU145 cells: after six days; for effect on DU145 cells (health, proliferation): after three days
Experimental: Prostate cancer cell lines DU145 and PC3 (in 10% BCS) will be cultured in Ham's F12 (Gibco, Carlsbad, Calif.) medium containing 10% BCS (Hyclone, Logan, Utah) and appropriate antibiotics (pen/strep, fungizaone, and gentamycin (Invitrogen Inc., Carlsbad, Calif.). All cells will be cultured at 37° C. in a fully humidified atmosphere containing 5% CO2.
At 50% confluence, the cells will be treated with either 100 μM DMSO, AGX51, AGX-A, or a compound of the present technology. The cell morphology and growth will be monitored daily for 1 week by microscopy for changes in morphology or cell death. Apoptosis will be determined by measuring caspase 3 and caspase 7 activities using the Caspase-Glo 3/7 Assay system from Promega (Madison, Wis.).

cells = assay: Cell killing / cell viability assay; assay type: cell-based
Experimental: Cell viability assays. Cell lines will be seeded in a 96 well plate (5000 cells per well). After overnight incubation, cells will be treated with a compound of the present technology and incubated for 24 hours then MTT reagent (5 mg/mL) will be added per well and the cells will be incubated for four hours. Following incubation, media will be aspirated and 200 μL DMSO will be added per well. Absorbance will then be measured at 570 nm using a plate reader (Synergy 2, BioTek). Cell growth profiles will be determined by seeding 38,000 cells in a 24-well plate, in triplicate for each time point, and counting the cells on days 1, 3 and 5 after seeding, using trypan blue exclusion of dead cells.

ID1 = target: T1, ID1 (Homo sapiens, UniProt P41134); assay: Activity against ID1 in cells (Western Blot); assay type: cell-based
T1 construct: endogenous in cells
T1 sequence (P41134 1-155): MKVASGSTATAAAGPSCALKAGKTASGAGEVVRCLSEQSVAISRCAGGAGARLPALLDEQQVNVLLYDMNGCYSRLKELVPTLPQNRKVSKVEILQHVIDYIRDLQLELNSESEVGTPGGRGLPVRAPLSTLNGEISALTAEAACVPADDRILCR

[2] = tested on: cholangiocarcinoma PDX RomeP_PHCH_X_0008a; assay: Murine patient-derived xenograft model of cholangiocarcinoma, tumor volume; assay type: in vivo, mouse; settings: NSG mice, 50 or 100 mg/kg p.o. BIDx5 x 4 weeks
Description: An animal model of cholangiocarcinoma predictive of anti-cholangiocarcinoma drug efficacy in humans, as described in Mattar, M. et al. Establishing and Maintaining an Extensive Library of Patient-Derived Xenograft Models. Front Oncol. 2018 Feb.
• Mice: NSG females, 6-8 weeks old • PDX: RomeP_PHCH_X_0008a, serially transplanted sc with matrigel • Treatment Groups (at least 5 animals/group): treatments started when tumors reached 100 mm^3 (“Day 0” for each animal), dosed via oral gavage • Group 1. Saline with 10% by weight 2-hydroxypropyl-β-cyclodextrin (“Vehicle”), p.o. twice daily for 5 days per week (“BIDx5”) for 4 weeks (“×4 weeks”) • Group 2. AGX-A 50 mg/kg in Vehicle, p.o. BIDx5×4 weeks • Group 3. AGX-A 100 mg/kg in Vehicle, p.o. BIDx5×4 weeks • Group 4. AGX-502 50 mg/kg in Vehicle, p.o. BIDx5×4 weeks • Group 5. AGX-502 100 mg/kg in Vehicle, p.o. BIDx5×4 weeks.
Tumor volumes, weights, and clinical signs were monitored a minimum of twice per week for each animal in each group throughout the study. Mice were sacrificed by CO2 asphyxiation once the tumor volume exceeded 2000 mm^3 or body weight loss was higher than 10%. Upon completion of the experiment, tumors were harvested and processed for immunoblotting and/or immunohistochemistry assays.

SMILES: CCC(=O)N(CCC(c1ccc2c(c1)OCO2)c1ccccc1OC)Cc1ccccc1 (racemic) [AGX51, N-(3-(benzo[d][1,3]dioxol-5-yl)-3-(2-methoxyphenyl)propyl)-N-benzylpropionamide]
- protection from new blood vessel formation [1]: significant protection
- presence of endothelial cells in Matrigel plugs [1]: significantly decrease
- lung metastases (LLC cancer cells): profoundly diminish
- outcome of treatment of DU145 cells (DU145 cells): cell death
- effect on DU145 cells (health, proliferation) (DU145 cells): pronounced effect

SMILES: COc1ccccc1C(CCNCc1ccccc1)c1ccc(OC(C)C)cc1 (centres unmarked) [AGX-A, N-benzyl-3-(4-isopropoxyphenyl)-3-(2-methoxyphenyl)propan-1-amine]
- time to complete cell killing (cells): ≤ 24 h
- protection from new blood vessel formation [1]: significant protection
- presence of endothelial cells in Matrigel plugs [1]: significantly decrease
- lung metastases (LLC cancer cells): profoundly diminish
- outcome of treatment of DU145 cells (DU145 cells): cell death
- effect on DU145 cells (health, proliferation) (DU145 cells): pronounced effect

SMILES: COc1ccccc1C(CCNC(C)c1ccccc1)c1ccc(OC(C)C)cc1 (centres unmarked) [AGX-502]
- activity against ID1 in cells (ID1): significant activity
- activity by Western Blot (ID1): very active
- activity by cell killing (cells): very active
- time to complete cell killing (cells): ≤ 8 h
- IC50 (24 h) (cells; 24 h, initial testing): significantly favorable
- anti-cancer efficacy (tumor volume) [2]: dose-dependent anti-cancer efficacy
